Holding throughout (format): ADME, organism-based
Data set [1] is described as follows: Drug concentration in Swiss mouse brain at 40 mg/kg, sc after 30 mins by LC-MS analysis. The following applies: read-out: Drug uptake.
A short description of data set [2]: Ratio of drug level in Swiss mouse brain to plasma at 40 mg/kg, sc after 30 mins by LC-MS analysis. The note with it: brain and plasma, read-out: BPR.
A short description of data set [3]: Drug concentration in Swiss mouse plasma at 40 mg/kg, sc after 30 mins by LC-MS analysis.
The nature of data set [4]: Drug level in DBA/2 mouse brain at 0.3 mg/kg, iv after 10 mins. The following applies: read-out: Drug uptake.
Data set [5] in a line: Drug level in NSA mouse brain at 0.3 mg/kg, po after 120 to 150 mins. The note with it: in vivo, read-out: Drug uptake.
The nature of data set [6]: Drug level in DBA/2 mouse brain at 0.3 mg/kg, iv after 90 mins. The note with it: read-out: Drug uptake.
A short description of data set [7]: Drug level in Sprague-Dawley rat cerebrospinal fluid at 3 mg/kg, po. The following applies: in vivo.
Data set [8] is described as follows: Drug level in rat plasma at 10 mg/kg, ip after 120 mins by HPLC-LC/MS analysis.
Data set [9] in a line: Ratio of drug level in rat brain to plasma at 10 mg/kg, ip by HPLC-LC/MS analysis. The note with it: brain and plasma, read-out: BPR.

Turning to `OCc1sc(Nc2ccc(F)c(C(F)(F)F)c2)nc1-c1ccncc1`, the concentration at 0.5 h stood at 1910 ng/g in data set [1] and 5920 ng/mL in [3]. Besides, the Kp at 0.5 h in [2] amounted to 0.3.

With `Cc1cc(/C(=C/Nc2ccc(Cl)cc2)C(=O)Nc2ccc(Cl)cc2)on1` [AVL-3288], in data set [4], the concentration at 10 min stood at 1000 nM. Further, the concentration in data set [5] lay in the range of 150 to 300 nM. Moreover, the concentration at 1.5 h in data set [6] was determined as 300 nM.

Take `COc1ccc(Cl)cc1C(=O)N[C@@H]1[C@@H](c2ccc(S(N)(=O)=O)cc2)C1(C)C`: the Drug uptake in data set [7] turned out to be 12.1 ng/mL.

Take `O=C(Nc1cc(Cl)ccc1O)Nc1cc(C(F)(F)F)ccc1Cl`: the concentration at 2 h in [8] was 172 ng/mL. For the same compound, in [9], the Kp amounted to 0.5.

For the origin of these results see ChEMBL document CHEMBL4354827, “Discovery of Novel, Potent, Brain-Permeable, and Orally Efficacious Positive Allosteric Modulator of α7 Nicotinic Acetylcholine Receptor [4-(5-(4-Chlorophenyl)-4-methyl-2-propionylthiophen-3-yl)benzenesulfonamide]: Structure-Activity Relationship and Preclinical Characterization” (J Med Chem, 2020).
